Data reported in patent US11214803B2, “Modulators of YAP1 expression” (Ionis Pharmaceuticals, Inc., priority 2019, dated 2022).

Columns and labels:
[1] = tested on: NCI H292 cells; assay: Cell proliferation assay in NCI H292 cells, CellTiter-Glo (Example 32); assay type: cell-based, human; conditions: free uptake, approximately 144 hours
Protocol: Modified oligonucleotides described in the studies above were tested at various doses in mucoepidermoid pulmonary carcinoma cell line […]. A control oligonucleotide 792169 was also tested.
Cultured NCI H292 cells at a density of 1000 cells/well were treated using free uptake with modified oligonucleotides diluted to concentrations described in the tables below. After approximately 144 hours, cell proliferation was measured using the luminescent cell viability CellTiter-Glo® 2.0 Assay (Promega). Results are presented in the tables below as percent control of the amount of luminescence in samples treated with modified oligonucleotides relative to untreated control cells (% UTC).

[2] = tested on: CAL33 xenograft tumor; assay: Tumor volume and tumor weight in CAL33 xenograft tumor model (Example 29); assay type: in vivo, human; conditions: 50 mg/kg twice weekly for two weeks; for Average Tumor weight: CAL33 xenograft mice, end of study; for Average Tumor Volume: CAL33 xenografts
Protocol: A xenograft tumor model was used to evaluate activity of modified oligonucleotides targeted to human Yap1. One million CAL33 cells in 30% matrigel were implanted subcutaneously into the flanks of female CrTac:NCr-Foxnlnu (Taconic) mice. When tumors reached an average volume of 100 mm^3, approximately two weeks post-implantation, groups of eight mice were administered at 50 mg/kg twice weekly with modified oligonucleotides for two weeks. ION 792169 was administered as a control.
Tumor volume was measured at the indicated days in the table below. Tumor weight was determined at end of study. Mice were sacrificed when tumors from PBS-treated mice reached 2,000 mm3.

[3] = tested on: SNU-1076 cells; assay: Cell proliferation assay in SNU-1076 cells, CellTiter-Glo (Example 45); assay type: cell-based, human; conditions: free uptake, approximately 144 hours
Protocol: Modified oligonucleotides described in the studies above were tested at various doses in upper aerodigestive tract/laryngeal squamous cell carcinoma line SNU-1076. A control oligonucleotide 792169, described herein above, was also tested.
Cultured SNU-1076 cells at a density of 1000 cells/well were treated using free uptake with modified oligonucleotides diluted to concentrations described in the tables below. After approximately 144 hours, cell proliferation was measured using the luminescent cell viability CellTiter-Glo® 2.0 Assay (Promega). Results are presented in the tables below as percent control of the amount of luminescence in samples treated with modified oligonucleotides relative to untreated control cells (% UTC).

[4] = tested on: Yap1 mRNA; assay: Yap1 mRNA in BICR-22 cells, RNA analysis (Example 35); assay type: cell-based, human; conditions: free uptake, approximately 48 hours
Protocol: Modified oligonucleotides described in the studies above were tested at various doses in tongue squamous carcinoma (lymph node metastasis) cell line BICR-22. A control oligonucleotide 792169, described herein above, was also tested.
Cultured BICR-22 cells at a density of 5000 cells per well were treated using free uptake with modified oligonucleotides diluted to concentrations described in the tables below. After approximately 48 hours, Yap1 mRNA levels were measured as previously described using the Human Yap1 primer-probe set RTS4814. Yap1 mRNA levels were normalized to actin-beta content, as measured by primer probe set RTS5002. Results are presented in the tables below as percent control of the amount of Yap1 mRNA relative to untreated control cells (% UTC).

[5] = tested on: SCC-9 cells; assay: Cell proliferation assay in SCC-9 cells, CellTiter-Glo (Example 40); assay type: cell-based, human; conditions: free uptake, approximately 144 hours
Protocol: Modified oligonucleotides described in the studies above were tested at various doses in tongue squamous cell carcinoma cell line SCC-9. A control oligonucleotide 792169, described herein above, was also tested.
Cultured SCC-9 cells at a density of 1000 cells/well were treated using free uptake with modified oligonucleotides diluted to concentrations described in the tables below. After approximately 144 hours, cell proliferation was measured using the luminescent cell viability CellTiter-Glo® 2.0 Assay (Promega). Results are presented in the tables below as percent control of the amount of luminescence in samples treated with modified oligonucleotides relative to untreated control cells (% UTC).

[6] = tested on: SNU-899 cells; assay: Cell proliferation assay in SNU-899 cells, CellTiter-Glo (Example 43); assay type: cell-based, human; conditions: free uptake, approximately 144 hours
Protocol: Modified oligonucleotides described in the studies above were tested at various doses in laryngeal squamous cell carcinoma cell line SNU-899. A control oligonucleotide 792169, described herein above, was also tested.
Cultured SNU-899 cells at a density of 1000 cells/well were treated using free uptake with modified oligonucleotides diluted to concentrations described in the tables below. After approximately 144 hours, cell proliferation was measured using the luminescent cell viability CellTiter-Glo® 2.0 Assay (Promega). Results are presented in the tables below as percent control of the amount of luminescence in samples treated with modified oligonucleotides relative to untreated control cells (% UTC).

[7] = tested on: Yap1 mRNA; assay: Yap1 mRNA in Detroit-562 cells, RNA analysis (Example 38); assay type: cell-based, human; conditions: free uptake, approximately 48 hours
Protocol: Modified oligonucleotides described in the studies above were tested at various doses in pharynx carcinoma cell line Detroit-562. A control oligonucleotide 792169, described herein above, was also tested.
Cultured Detroit-562 cells at a density of 5000 cells per well were treated using free uptake with modified oligonucleotides diluted to concentrations described in the tables below. After approximately 48 hours, Yap1 mRNA levels were measured as previously described using the Human Yap1 primer-probe set RTS4814. Yap1 mRNA levels were normalized to actin-beta content, as measured by primer probe set RTS5002. Results are presented in the tables below as percent control of the amount of Yap1 mRNA relative to untreated control cells (% UTC).

[8] = Cynomolgus monkey tolerability, kidney and liver function markers (Example 34); conditions: cynomolgus monkeys, 35 mg/kg subcutaneously, day 44
Protocol: Prior to the study, the monkeys were kept in quarantine during which the animals were observed daily for general health. The monkeys were 2-4 years old and weighed 2-4 kg. Eleven groups of 4 randomly assigned male cynomolgus monkeys each were injected subcutaneously with Ionis oligonucleotide or saline in a clock-wise rotation between four different sites on the back. Following loading doses on days 1, 3, 5 and 7, the monkeys were dosed once per week (on days 14, 21, 28, 35, and 42) with 35 mg/kg of Ionis oligonucleotide.
To evaluate the effect of Ionis oligonucleotides on hepatic and kidney function, blood samples were collected from all the study groups on day 44. The monkeys were fasted overnight prior to blood collection. Blood was collected in tubes without anticoagulant for serum separation. The tubes were kept at room temperature for a minimum of 90 minutes and then centrifuged at 3000 rpm for 10 minutes to obtain serum. Levels of various liver function markers were measured using a Toshiba 200FR NEO chemistry analyzer (Toshiba Co., Japan).

CGCCGATAAGGTACAC (cEt gapmer, phosphorothioate backbone, further chemistry not given here) [ION 792169, reference compound]
Antiproliferative effect (cell proliferation, luminescence) ([1]; 0.04 μM): 98 % UTC
Antiproliferative effect (cell proliferation, luminescence) ([1]; 0.2 μM): 97 % UTC
Antiproliferative effect (cell proliferation, luminescence) ([1]; 1 μM): 99 % UTC
Antiproliferative effect (cell proliferation, luminescence) ([1]; 5 μM): 92 % UTC
Average Tumor weight [2]: 0.85 g
Average Tumor Volume ([2]; day 10 post-implantation): 123 mm^3
Average Tumor Volume ([2]; day 13 post-implantation): 262 mm^3
Average Tumor Volume ([2]; day 17 post-implantation): 367 mm^3
Average Tumor Volume ([2]; day 21 post-implantation): 531 mm^3
Average Tumor Volume ([2]; day 24 post-implantation): 774 mm^3
Average Tumor Volume ([2]; day 27 post-implantation): 805 mm^3
Average Tumor Volume ([2]; day 31 post-implantation): 962 mm^3
Average Tumor Volume ([2]; day 34 post-implantation): 1057 mm^3
Average Tumor Volume ([2]; day 38 post-implantation): 1171 mm^3
Average Tumor Volume ([2]; day 40 post-implantation): 1160 mm^3
Average Tumor Volume ([2]; day 44 post-implantation): 1069 mm^3
Antiproliferative effect (cell proliferation, luminescence) ([3]; 0.04 μM): 97 % UTC
Antiproliferative effect (cell proliferation, luminescence) ([3]; 0.2 μM): 104 % UTC
Antiproliferative effect (cell proliferation, luminescence) ([3]; 1 μM): 106 % UTC
Antiproliferative effect (cell proliferation, luminescence) ([3]; 5 μM): 108 % UTC
human Yap1 mRNA expression ([4]; 0.04 μM): 99 % UTC
human Yap1 mRNA expression ([4]; 0.2 μM): 98 % UTC
human Yap1 mRNA expression ([4]; 1 μM): 98 % UTC
human Yap1 mRNA expression ([4]; 5 μM): 98 % UTC
Antiproliferative effect (cell proliferation, luminescence) ([5]; 0.04 μM): 104 % UTC
Antiproliferative effect (cell proliferation, luminescence) ([5]; 0.2 μM): 111 % UTC
Antiproliferative effect (cell proliferation, luminescence) ([5]; 1 μM): 102 % UTC
Antiproliferative effect (cell proliferation, luminescence) ([5]; 5 μM): 94 % UTC
Antiproliferative effect (cell proliferation, luminescence) ([6]; 0.04 μM): 90 % UTC
Antiproliferative effect (cell proliferation, luminescence) ([6]; 0.2 μM): 94 % UTC
Antiproliferative effect (cell proliferation, luminescence) ([6]; 1 μM): 96 % UTC
Antiproliferative effect (cell proliferation, luminescence) ([6]; 5 μM): 86 % UTC
human Yap1 mRNA expression ([7]; 0.04 μM): 102 % UTC
human Yap1 mRNA expression ([7]; 0.2 μM): 102 % UTC
human Yap1 mRNA expression ([7]; 1 μM): 94 % UTC
human Yap1 mRNA expression ([7]; 5 μM): 99 % UTC

1198440 (AAGTGTATGTCAGAAG; cEt, 2'-MOE, 5-methylcytosine, phosphorothioate modifications, further chemistry not given here) [compound 1198440]
Antiproliferative effect (cell proliferation, luminescence) ([1]; 0.04 μM): 100 % UTC
Antiproliferative effect (cell proliferation, luminescence) ([1]; 0.2 μM): 83 % UTC
Antiproliferative effect (cell proliferation, luminescence) ([1]; 1 μM): 30 % UTC
Antiproliferative effect (cell proliferation, luminescence) ([1]; 5 μM): 15 % UTC
Average Tumor weight [2]: 0.36 g
Average Tumor Volume ([2]; day 10 post-implantation): 115 mm^3
Average Tumor Volume ([2]; day 13 post-implantation): 279 mm^3
Average Tumor Volume ([2]; day 17 post-implantation): 376 mm^3
Average Tumor Volume ([2]; day 21 post-implantation): 574 mm^3
Average Tumor Volume ([2]; day 24 post-implantation): 651 mm^3
Average Tumor Volume ([2]; day 27 post-implantation): 818 mm^3
Average Tumor Volume ([2]; day 31 post-implantation): 888 mm^3
Average Tumor Volume ([2]; day 34 post-implantation): 857 mm^3
Average Tumor Volume ([2]; day 38 post-implantation): 770 mm^3
Average Tumor Volume ([2]; day 40 post-implantation): 746 mm^3
Average Tumor Volume ([2]; day 44 post-implantation): 834 mm^3
Antiproliferative effect (cell proliferation, luminescence) ([3]; 0.04 μM): 99 % UTC
Antiproliferative effect (cell proliferation, luminescence) ([3]; 0.2 μM): 87 % UTC
Antiproliferative effect (cell proliferation, luminescence) ([3]; 1 μM): 81 % UTC
Antiproliferative effect (cell proliferation, luminescence) ([3]; 5 μM): 81 % UTC
human Yap1 mRNA expression ([4]; 0.04 μM): 44 % UTC
human Yap1 mRNA expression ([4]; 0.2 μM): 14 % UTC
human Yap1 mRNA expression ([4]; 1 μM): 4 % UTC
human Yap1 mRNA expression ([4]; 5 μM): 4 % UTC
Antiproliferative effect (cell proliferation, luminescence) ([5]; 0.04 μM): 88 % UTC
Antiproliferative effect (cell proliferation, luminescence) ([5]; 0.2 μM): 46 % UTC
Antiproliferative effect (cell proliferation, luminescence) ([5]; 1 μM): 35 % UTC
Antiproliferative effect (cell proliferation, luminescence) ([5]; 5 μM): 31 % UTC
Antiproliferative effect (cell proliferation, luminescence) ([6]; 0.04 μM): 82 % UTC
Antiproliferative effect (cell proliferation, luminescence) ([6]; 0.2 μM): 75 % UTC
Antiproliferative effect (cell proliferation, luminescence) ([6]; 1 μM): 69 % UTC
Antiproliferative effect (cell proliferation, luminescence) ([6]; 5 μM): 66 % UTC
human Yap1 mRNA expression ([7]; 0.04 μM): 32 % UTC
human Yap1 mRNA expression ([7]; 0.2 μM): 8 % UTC
human Yap1 mRNA expression ([7]; 1 μM): 3 % UTC
human Yap1 mRNA expression ([7]; 5 μM): 2 % UTC
ALB [8]: 4.1 g/dL
ALP [8]: 1412 IU/L
ALT [8]: 45 IU/L
AST [8]: 75 IU/L
BUN [8]: 26 mg/dL
CREA [8]: 0.9 mg/dL
GGT [8]: 80 IU/L
GLO [8]: 2.9 g/dL
GLU [8]: 91 mg/dL
HDL [8]: 104 mg/dL
LDL [8]: 54 mg/dL
TBIL [8]: 0.2 mg/dL
TG [8]: 30 mg/dL
TP [8]: 7.0 g/dL
